This note sets out measurements from PubChem BioAssay AID1259407 (Chemical Carcinogenesis Research Information System (CCRIS), 2018).

The series has as its system CCRIS mutagenicity, Ames/micronucleus/aberration tests. As to the kind of experiment: CCRIS mutagenicity studies.
The mark [1] stands for this setting: Test System: AMES SALMONELLA TYPHIMURIUM, Strain/Indicator: TA98, Metabolic Activation: NONE, Method: STANDARD PLATE.
[2] abbreviates: Test System: AMES SALMONELLA TYPHIMURIUM, Strain/Indicator: TA98, Metabolic Activation: RAT, LIVER, S-9, AROCLOR 1254, Method: STANDARD PLATE.
Where [3] appears, read: Test System: AMES SALMONELLA TYPHIMURIUM, Strain/Indicator: TA100, Metabolic Activation: NONE, Method: STANDARD PLATE.
Where [4] appears, read: Test System: AMES SALMONELLA TYPHIMURIUM, Strain/Indicator: TA100, Metabolic Activation: RAT, LIVER, S-9, AROCLOR 1254, Method: STANDARD PLATE.
Setting [5] is: Test System: AMES SALMONELLA TYPHIMURIUM, Strain/Indicator: TA1535, Metabolic Activation: NONE, Method: STANDARD PLATE.
Setting [6] is: Test System: AMES SALMONELLA TYPHIMURIUM, Strain/Indicator: TA1535, Metabolic Activation: RAT, LIVER, S-9, AROCLOR 1254, Method: STANDARD PLATE.
[7] abbreviates: Test System: AMES SALMONELLA TYPHIMURIUM, Strain/Indicator: TA1537, Metabolic Activation: NONE, Method: STANDARD PLATE.
Where [8] appears, read: Test System: AMES SALMONELLA TYPHIMURIUM, Strain/Indicator: TA1537, Metabolic Activation: RAT, LIVER, S-9, AROCLOR 1254, Method: STANDARD PLATE.
Where [9] appears, read: Test System: AMES SALMONELLA TYPHIMURIUM, Strain/Indicator: TA1538, Metabolic Activation: NONE, Method: STANDARD PLATE.
Setting [10] is: Test System: AMES SALMONELLA TYPHIMURIUM, Strain/Indicator: TA1538, Metabolic Activation: RAT, LIVER, S-9, AROCLOR 1254, Method: STANDARD PLATE.

Activity calls are given as the source filed them. No rule for the calls is given here.

`O=c1[nH]c(=O)n([C@H]2C[C@H](O)[C@@H](CO)O2)cc1/C=C/Br`: the mutagenic call by setting is: (Test System: AMES SALMONELLA TYPHIMURIUM, Strain/Indicator: TA97, Metabolic Activation: NONE, Method: PREINCUBATION) “inactive; negative”; (Test System: AMES SALMONELLA TYPHIMURIUM, Strain/Indicator: TA97, Metabolic Activation: RAT, LIVER, S-9, AROCLOR 1254, Method: PREINCUBATION) “inactive; negative”; (Test System: AMES SALMONELLA TYPHIMURIUM, Strain/Indicator: TA98, Metabolic Activation: NONE, Method: PREINCUBATION) “inactive; negative”; under setting [1], “inactive; negative”; (Test System: AMES SALMONELLA TYPHIMURIUM, Strain/Indicator: TA98, Metabolic Activation: RAT, LIVER, S-9, AROCLOR 1254, Method: PREINCUBATION) “inactive; negative”; under setting [2], “inactive; negative”. For the same compound, the mutagenic call is “inactive; negative” (Test System: AMES SALMONELLA TYPHIMURIUM, Strain/Indicator: TA100, Metabolic Activation: NONE, Method: PREINCUBATION); “inactive; negative” under setting [3]; “inactive; negative” (Test System: AMES SALMONELLA TYPHIMURIUM, Strain/Indicator: TA100, Metabolic Activation: RAT, LIVER, S-9, AROCLOR 1254, Method: PREINCUBATION); “inactive; negative” under setting [4]; “inactive; negative” (Test System: AMES SALMONELLA TYPHIMURIUM, Strain/Indicator: TA102, Metabolic Activation: NONE, Method: PREINCUBATION); “inactive; negative” (Test System: AMES SALMONELLA TYPHIMURIUM, Strain/Indicator: TA102, Metabolic Activation: RAT, LIVER, S-9, AROCLOR 1254, Method: PREINCUBATION). Moreover, the mutagenic call runs as follows: (Test System: AMES SALMONELLA TYPHIMURIUM, Strain/Indicator: TA104, Metabolic Activation: NONE, Method: PREINCUBATION) “inactive; negative”; (Test System: AMES SALMONELLA TYPHIMURIUM, Strain/Indicator: TA104, Metabolic Activation: RAT, LIVER, S-9, AROCLOR 1254, Method: PREINCUBATION) “inactive; negative”; (Test System: AMES SALMONELLA TYPHIMURIUM, Strain/Indicator: TA1535, Metabolic Activation: NONE, Method: PREINCUBATION) “inactive; negative”; under setting [5], “inactive; negative”; (Test System: AMES SALMONELLA TYPHIMURIUM, Strain/Indicator: TA1535, Metabolic Activation: RAT, LIVER, S-9, AROCLOR 1254, Method: PREINCUBATION) “inactive; negative”; under setting [6], “inactive; negative”. Further, the mutagenic call is “inactive; negative” (Test System: AMES SALMONELLA TYPHIMURIUM, Strain/Indicator: TA1537, Metabolic Activation: NONE, Method: PREINCUBATION); “inactive; negative” under setting [7]; “inactive; negative” (Test System: AMES SALMONELLA TYPHIMURIUM, Strain/Indicator: TA1537, Metabolic Activation: RAT, LIVER, S-9, AROCLOR 1254, Method: PREINCUBATION); “inactive; negative” under setting [8]; “inactive; negative” (Test System: AMES SALMONELLA TYPHIMURIUM, Strain/Indicator: TA1538, Metabolic Activation: NONE, Method: PREINCUBATION); “inactive; negative” under setting [9]. Further, the mutagenic call runs as follows: (Test System: AMES SALMONELLA TYPHIMURIUM, Strain/Indicator: TA1538, Metabolic Activation: RAT, LIVER, S-9, AROCLOR 1254, Method: PREINCUBATION) “inactive; negative”; under setting [10], “inactive; negative”; (Test System: CHINESE HAMSTER OVARY, Strain/Indicator: CHO-K1-BH4 (HGPRT), Metabolic Activation: NONE) “inactive; negative”; (Test System: CHINESE HAMSTER V-79, Strain/Indicator: V-79/8-AZAGUANINE, Metabolic Activation: NONE) “inactive; negative”; (Test System: MOUSE LYMPHOMA, Strain/Indicator: L5178Y (TK+/TK-), Metabolic Activation: NONE, Method: SUSPENSION/PLATE) “active; positive”; (Test System: MOUSE LYMPHOMA, Strain/Indicator: L5178Y (TK+/TK-), Metabolic Activation: RAT, LIVER, S-9, AROCLOR 1254, Method: SUSPENSION/PLATE) “inactive; negative”. Also, the mutagenic call by setting is: (Test System: UDS RAT PRIMARY HEPATOCYTES, Strain/Indicator: THY INCORP (NON-S-PHASE), Metabolic Activation: NONE) “inactive; negative”; (Test System: UDS RODENT HEPATOCYTES, Strain/Indicator: THY INCORP, Metabolic Activation: NONE) “inactive; negative”.

As for `O=C(N=c1sn(C(=O)c2ccc([N+](=O)[O-])cc2)c2ccc(Cl)cc12)c1ccc([N+](=O)[O-])cc1`, the mutagenic call (Test System: AMES SALMONELLA TYPHIMURIUM, Strain/Indicator: TA100, Metabolic Activation: S-9, Method: STANDARD PLATE) is “active; positive”.

Regarding `CC1=C(/C=C/C(C)=C/C=C/C(C)=C/C=C/C=C(C)/C=C/C=C(C)/C=C/C2=C(C)C(=O)CCC2(C)C)C(C)(C)CCC1=O`, the mutagenic call is “inactive; negative” under setting [1], “inactive; negative” under setting [2], “inactive; negative” under setting [3] and “inactive; negative” under setting [4].

With `CC(S)C(=O)NCC(=O)O` (stereo not given), the mutagenic call under setting [1] is “inactive; negative”; the mutagenic call under setting [2] was “inactive; negative”; the mutagenic call under setting [3] was “inactive; negative”; the mutagenic call under setting [4] was “inactive; negative”; the mutagenic call under setting [5] is “inactive; negative”; the mutagenic call under setting [6] was “inactive; negative”. The mutagenic call reads like this: under setting [7], “inactive; negative”; under setting [8], “inactive; negative”; under setting [9], “inactive; negative”; under setting [10], “inactive; negative”.

`CC1(C)CC[C@]2(C(=O)O)CC[C@]3(C)C(=CC[C@@H]4[C@@]5(C)C[C@H](O)[C@H](O[C@@H]6O[C@H](CO)[C@@H](O)[C@H](O)[C@H]6O)C(C)(C(=O)O)C5CC[C@]43C)[C@H]2C1` (stereo not given in full): the mutagenic call is “inactive; negative” (Test System: AMES SALMONELLA TYPHIMURIUM, Strain/Indicator: TA97, Metabolic Activation: NONE, Method: STANDARD PLATE); “inactive; negative” (Test System: AMES SALMONELLA TYPHIMURIUM, Strain/Indicator: TA97, Metabolic Activation: RAT, LIVER, S-9, AROCLOR 1254, Method: STANDARD PLATE); “inactive; negative” under setting [1]; “inactive; negative” under setting [2]; “inactive; negative” under setting [3]; “inactive; negative” under setting [4]. For the same compound, the mutagenic call (Test System: AMES SALMONELLA TYPHIMURIUM, Strain/Indicator: TA102, Metabolic Activation: NONE, Method: STANDARD PLATE) is “inactive; negative” and the mutagenic call (Test System: AMES SALMONELLA TYPHIMURIUM, Strain/Indicator: TA102, Metabolic Activation: RAT, LIVER, S-9, AROCLOR 1254, Method: STANDARD PLATE) is “inactive; negative”.
